# Reference: US10414797B2, “Gelatinase inhibitors and use thereof” (Iproteos S.L, priority 2015, dated 2019)
# pIC50: −log10 of the molar value. Where a SMILES comes first, the peptide text is derived from it. [ ]: non-standard residue; d: D form. The star is where a group is joined. ξ: configuration not given here. Pro(trans-4-F) = O=C(O)[C@@H]1C[C@@H](F)CN1; NMeW = CN[C@@H](Cc1c[nH]c2ccccc12)C(=O)O; Benzoyl(3,5-F2) = O=C(c1cc(F)cc(F)c1)*; NMeIle(3ξ) = CCC(C)[C@H](NC)C(=O)O; NMeQ = CN[C@@H](CCC(N)=O)C(=O)O; NMeL = CN[C@@H](CC(C)C)C(=O)O; NMeA = CN[C@@H](C)C(=O)O; Dab = NCC[C@H](N)C(=O)O; Hexanoyl = CCCCCC(=O)*; Butyryl = CCCC(=O)*; Bz = O=C(c1ccccc1)*; NHOH = ON*
# Experiments:
# MMP-9 [1] = assay: MMP-9 inhibition assay (fluorimetric, DQ gelatin substrate); format: biochemical; settings: recombinant MMP-9 (Merck-Millipore for examples 1 to 9 and comparative examples; Enzo for examples 10 to 16), DQ gelatin 50 μg/mL, 4 hours at room temperature, pH 7.6
# Experimental: (§1) All the experiments were done in 1× reaction buffer, which was obtained from a 10× reaction buffer solution. The content of the 10× reaction buffer was: 50 mL of 0.5 M Tris-HCl, 1.5 M NaCl, 50 mM CaCl2 and 2 mM sodium azide at pH 7.6. To obtain the 1× reaction buffer 4 mL of the 10× reaction buffer were diluted in 36 mL of H2O.
# (§2) Recombinant MMP-9 expressed was obtained from Merck-Millipore (catalog number PF140-5UG, used in examples 1 to 9 and comparative examples) and Enzo (catalog number-SE360-0010, used in examples 10 to 16). DQ gelatin from pig skin fluorescein conjugated (MMP-9 substrate) was obtained from Life Technologies (catalog number E12055).
# (§3) Preparation of the MMP-9 for the activity assay: MMP-9 was provided as a stock solution (0.1 mg/mL). The enzyme was diluted in 1× reaction buffer to a final concentration of 5 μg/mL.
# (§4) Preparation of the DQ gelatin (substrate) solution for the activity assay: the solid form of the substrate was dissolved in water in order to obtain a stock solution of 1 mg/mL.
# (§5) Procedure: The enzymatic assays were performed in 96-well microtiter plate, which allowed simultaneous monitoring of multiple reactions. For each reaction, 84.6 μL of 1× reaction buffer (pH 7.6), […] of MMP-9 (final concentration 85 ng/mL) and 2 μL of the corresponding new compound were added to each well. A stock solution of new compound was prepared in DMSO (100 mM), and dilutions were prepared from this stock solution with DMSO. Finally, to the mixture contained in each well 10 μL of the substrate were added (final concentration 50 μg/mL). The reaction was incubated for 4 hours at room temperature in an orbital shaker (100 rpm).
# (§6) The inhibitory activity of the new compound was measured fluorimetrically. The excitation and emission wavelengths were 483 and 525 nm, respectively.
# (§7) Inhibitory activity at several concentration points (ranging from 100 pM to 200 μM MMP) were measured for each compound. The inhibitory activity on MMP-2 and MMP-9 was calculated according to eq 1. For each new compound, the fluorescence in the presence (a) and in the absence (b) of the corresponding MMP was measured. The maximum fluorescence (0% inhibitory activity) was obtained from a sample of the corresponding MMP in the absence of inhibitory compounds. To estimate the inhibitory potency of the novel compounds, activities were plotted against the log concentration of the compound, adjusting to a sigmoid curve using GraphPad Prism software, and the IC50 value, defined as the concentration of compound required to inhibit 50% of the corresponding MMP activity, was determined from resulting curve.
# (§8) a corresponds to fluorescence intensity in the presence of substrate+test compound+MMP
# (§9) b corresponds to the fluorescence intensity in the presence of substrate+tested compound
# (§10) c corresponds to the fluorescence intensity in the presence of substrate+MMP
# (§11) d corresponds to the fluorescence intensity of the presence of substrate
# MMP-9 [2] = biological target: MMP-9 (Homo sapiens, UniProt P14780); assay: as above; format: biochemical; settings: recombinant MMP-9 (Merck-Millipore for examples 1 to 9 and comparative examples; Enzo for examples 10 to 16), DQ gelatin 50 μg/mL, 4 hours at room temperature, pH 7.6
# Experimental: as §1, §2, §3, §4, §5, §6, §7, §8, §9, §10, §11
# Sequence of MMP-9 (P14780 107-707 limits assumed): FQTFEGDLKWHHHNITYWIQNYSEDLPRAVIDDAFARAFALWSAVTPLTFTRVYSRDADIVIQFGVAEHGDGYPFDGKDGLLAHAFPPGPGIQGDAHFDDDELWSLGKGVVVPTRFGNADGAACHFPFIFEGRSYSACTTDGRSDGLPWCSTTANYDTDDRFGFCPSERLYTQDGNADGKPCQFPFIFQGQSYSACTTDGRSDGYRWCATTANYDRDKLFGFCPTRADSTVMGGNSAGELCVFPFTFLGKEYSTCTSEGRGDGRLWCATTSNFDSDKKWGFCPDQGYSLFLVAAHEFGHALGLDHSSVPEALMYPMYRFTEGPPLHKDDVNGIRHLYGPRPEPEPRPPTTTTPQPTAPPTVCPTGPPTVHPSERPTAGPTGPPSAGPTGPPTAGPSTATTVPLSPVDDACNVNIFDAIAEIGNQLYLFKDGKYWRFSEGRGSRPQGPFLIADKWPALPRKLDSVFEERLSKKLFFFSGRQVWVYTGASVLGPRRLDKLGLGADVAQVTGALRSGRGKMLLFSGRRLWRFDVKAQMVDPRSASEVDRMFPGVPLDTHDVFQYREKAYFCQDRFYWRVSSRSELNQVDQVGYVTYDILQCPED
# Sequence of MMP-9 (Homo sapiens, UniProt P14780) (P14780 107-707 limits assumed): as above
Compound,pIC50 (MMP-9 [1]),pIC50 (MMP-9 [2])
"CCC(C)[C@@H](C(=O)N[C@@H](CCNC(=O)c1cc(F)cc(F)c1)C(=O)NO)N(C)C(=O)[C@@H]1CCCN1C(=O)CCN(C)C(C)=O (stereo partly drawn) [Example 13, (2S)-1-[3-[acetyl(methyl)amino]propanoyl]-N-[(1S)-1-[[(1S)-3-[(3,5-difluorobenzoyl)amino]-1-(hydroxycarbamoyl)propyl]carbamoyl]-2-methyl-butyl]-N-methyl-pyrrolidine-2-carboxamide]",6.47,
"CCCC(=O)N1CCC[C@H]1C(=O)N(C)[C@H](C(=O)N[C@@H](CCNC(=O)c1cc(F)cc(F)c1)C(=O)NO)C(C)CC (stereo partly drawn) [Example 4, (2S)-1-butanoyl-N-[(1S)-1-[[(1S)-3-[(3,5-difluorobenzoyl)amino]-1-(hydroxycarbamoyl)propyl]carbamoyl]-2-methyl-butyl]-N-methyl-pyrrolidine-2-carboxamide]",,6.63
"CCCCCC(=O)N1CC(F)(F)C[C@H]1C(=O)N(C)[C@H](C(=O)N[C@@H](CCNC(=O)c1cc(F)cc(F)c1)C(=O)NO)C(C)CC (stereo partly drawn) [Example 7, (2S)—N-[(1S)-1-[[(1S)-3-[(3,5-difluorobenzoyl)amino]-1-(hydroxycarbamoyl)propyl]carbamoyl]-2-methyl-butyl]-4,4-difluoro-1-hexanoyl-N-methyl-pyrrolidine-2-carboxamide]",,6.15
"CCCCCC(=O)N1CCC[C@H]1C(=O)N(C)[C@H](C(=O)N[C@@H](CCNC(=O)c1cc(F)cc(F)c1)C(=O)NO)C(C)CC (stereo partly drawn) [Example 3, (2S)—N-[(1S)-1-[[(1S)-3-[(3,5-difluorobenzoyl)amino]-1-(hydroxycarbamoyl)propyl]carbamoyl]-2-methyl-butyl]-1-hexanoyl-N-methyl-pyrrolidine-2-carboxamide]",,6.40
"CCC(C)[C@@H](C(=O)N[C@@H](CCNC(=O)c1cc(F)cc(F)c1)C(=O)NO)N(C)C(=O)[C@@H]1CCCN1C(=O)[C@H](C)N(C)C(C)=O (stereo partly drawn) [Example 12, (2 S)-1-[(2S)-2-[acetyl(methyl)amino]propanoyl]-N-[(1S)-1-[[(1S)-3-[(3,5-difluorobenzoyl)amino]-1-(hydroxycarbamoyl)propyl]carbamoyl]-2-methyl-butyl]-N-methyl-pyrrolidine-2-carboxamide] (Ac-[NMeA]P[NMeIle(3ξ)][Dab](Benzoyl(3,5-F2))-{NHOH})",,6.87
"CCC(C)[C@@H](C(=O)N[C@@H](CCNC(=O)c1cc(F)cc(F)c1)C(=O)NO)N(C)C(=O)[C@@H]1CCCN1C(=O)CC(C)C (stereo partly drawn) [Example 5, (2S)—N-[(1S)-1-[[(1S)-3-[(3,5-difluorobenzoyl)amino]-1-(hydroxycarbamoyl)propyl]carbamoyl]-2-methyl-butyl]-N-methyl-1-(3-methylbutanoyl)pyrrolidine-2-carboxamide]",6.22,
"CCCCCC(=O)N1C[C@H](F)C[C@H]1C(=O)N(C)[C@H](C(=O)N[C@@H](CCNC(=O)c1ccccc1)C(=O)NO)C(C)CC (stereo partly drawn) [Example 16, (2S,4R)—N-[(1S)-1-[[(1S)-3-benzamido-1-(hydroxycarbamoyl)propyl]carbamoyl]-2-methyl-butyl]-4-fluoro-N-methyl-1-hexanoyl-pyrrolidine-2-carboxamide] (Hexanoyl-[Pro(trans-4-F)]-[NMeIle(3ξ)]-[Dab](Bz)-{NHOH})",,8.00
"CC(=O)N1CCC[C@H]1C(=O)N[C@@H](CCC(N)=O)C(=O)N[C@@H](Cc1c[nH]c2ccccc12)C(=O)NO [Example C17, (2S)-2-[[(2S)-1-acetylpyrrolidine-2-carbonyl)amino]-N-[(1S)-2-(hydroxyamino)-1-(1H-indol-3-ylmethyl)-2-oxo-ethyl]pentanediamide, reference compound] (Ac-Pro-Gln-Trp-{NHOH})",2.46,
"CCC(C)[C@@H](C(=O)N[C@@H](CCNC(=O)c1cc(F)cc(F)c1)C(=O)NO)N(C)C(=O)[C@@H]1CCCN1C(=O)CCCOc1ccccc1 (stereo partly drawn) [Example 9, (2S)—N-[(1S)-1-[[(1S)-3-[(3,5-difluorobenzoyl)amino]-1-(hydroxycarbamoyl)propyl]carbamoyl]-2-methyl-butyl]-N-methyl-1-(4-phenoxybutanoyl)pyrrolidine-2-carboxamide]",6.30,
"CCC(C)[C@@H](C(=O)N[C@@H](CCNC(=O)c1cc(F)cc(F)c1)C(=O)NO)N(C)C(=O)[C@@H]1CCCN1C(C)=O (stereo partly drawn) [Example 2, (2S)-1-acetyl-N-[(1S)-1-[[(1S)-3-[(3,5-difluorobenzoyl)amino]-1-(hydroxycarbamoyl)propyl]carbamoyl]-2-methyl-butyl]-N-methyl-pyrrolidine-2-carboxamide]",6.52,
"CCCC(CCC)C(=O)N1CCC[C@H]1C(=O)N(C)[C@H](C(=O)N[C@@H](CCNC(=O)c1cc(F)cc(F)c1)C(=O)NO)C(C)CC (stereo partly drawn) [Example 8, (2S)—N-[(1S)-1-[[(1S)-3-[(3,5-difluorobenzoyl)amino]-1-(hydroxycarbamoyl)propyl]carbamoyl]-2-methyl-butyl]-N-methyl-1-(2-propylpentanoyl)pyrrolidine-2-carboxamide]",,6.58
"CCCCCC(=O)N1CCC[C@H]1C(=O)N(C)[C@H](C(=O)N[C@@H](CCNC(=O)c1ccccc1)C(=O)NO)C(C)CC (stereo partly drawn) [Example 15, (2S)—N-[(1S)-1-[[(1S)-3-benzamido-1-(hydroxycarbamoyl)propyl]carbamoyl]-2-methyl-butyl]-N-methyl-1-hexanoyl-pyrrolidine-2-carboxamide] (Hexanoyl-Pro-[NMeIle(3ξ)]-[Dab](Bz)-{NHOH})",,6.15
"CC(=O)N1CCC[C@H]1C(=O)N(C)[C@@H](CCC(N)=O)C(=O)N[C@@H](Cc1c[nH]c2ccccc12)C(=O)NO [Example C20, (2S)-2-[[(2S)-1-acetylpyrrolidine-2-carbonyl]-methyl-amino]-N-[(1S)-2-(hydroxyamino)-1-(1H-indol-3-ylmethyl)-2-oxo-ethyl]pentanediamide, reference compound] (Ac-Pro-[NMeQ]-Trp-{NHOH})",4.66,
"CCC(C)[C@@H](C(=O)N[C@@H](CCNC(=O)c1cc(F)cc(F)c1)C(=O)NO)N(C)C(=O)[C@@H]1CC(F)(F)CN1C(=O)CCCOc1ccccc1 (stereo partly drawn) [Example 10, (2S)—N-[(1S)-1-[[(1S)-3-[(3,5-difluorobenzoyl)amino]-1-(hydroxycarbamoyl)propyl]carbamoyl]-2-methyl-butyl]-4,4-difluoro-N-methyl-1-(4-phenoxybutanoyl)pyrrolidine-2-carboxamide]",6.65,
"CCCC(=O)N(C)[C@@H](Cc1c[nH]c2ccccc12)C(=O)N(C)[C@@H](CC(C)C)C(=O)N1CCC[C@H]1C(=O)N(C)[C@H](C(=O)N[C@@H](CCNC(=O)c1cc(F)cc(F)c1)C(=O)NO)C(C)CC (stereo partly drawn) [Example 14, (2S)-1-[(2S)-2-[[(2S)-2-[butanoyl(methyl)amino]-3-(1H-indol-3-yl)propanoyl]-methyl-amino]-4-methyl-pentanoyl]-N-[(1S)-1-[[(1S)-3-[(3,5-difluorobenzoyl)amino]-1-(hydroxycarbamoyl)propyl]carbamoyl]-2-methyl-butyl]-N-methyl-pyrrolidine-2-carboxamide] (Butyryl-[NMeW][NMeL]P[NMeIle(3ξ)][Dab](Benzoyl(3,5-F2))-{NHOH})",7.34,
"CCC(C)[C@@H](C(=O)N[C@@H](CCNC(=O)c1ccc(F)cc1)C(=O)NO)N(C)C(=O)[C@@H]1CCCN1C(C)=O (stereo partly drawn) [Example 1, (2S)-1-acetyl-N-[(1S)-1-[[(1S)-3-[(4-fluorobenzoyl)amino]-1-(hydroxycarbamoyl)propyl]carbamoyl]-2-methyl-butyl]-N-methyl-pyrrolidine-2-carboxamide]",5.90,
